# US10344279B2, “Methods for the prevention and the treatment of extracapillary glomerulonephritis” (INSERM (Institut National de la Sante et de la Recherche …, priority 2014, dated 2019)
# What was measured:
# NTS-challenged mice = assay: NTS-induced crescentic glomerulonephritis (RPGN): albuminuria, BUN, crescentic glomeruli; type: in vivo
# Protocol: Podocyte-specific disruption of Stat3 mice were generated by crossing podocin-Cre positive mice (63) with Stat3 floxed mice (64) on C57BL6/J background. Their age-matched littermates with no deletion of Stat3 in any cells are considered as controls. […] Stattic (25 mg/kg) was administered in i.p. way every other day for 10 days. 10 weeks old 129S2/SvPasCr male mice were randomly treated with Stattic and were compared to vehicle-treated (DMSO) littermates.
# The glomerulonephritis was induced on male mice (10-12 weeks of age) by intravenous injection of 15 μL of sheep anti-glomerular basement membrane (GBM) nephrotoxic serum (NTS), which was diluted with 85 μL of sterile phosphate buffer solution. Serum injections were repeated twice (on days 2 and 3) at 6 μL/g of body weight and 7 μL/g respectively.
# Urinary creatinine and blood urea nitrogen (BUN) concentrations were analyzed by a standard colorimetric method (Olympus AU400) at the Biochemistry Laboratory of Institut Claude Bernard (IFR2, Faculté de Médecine Paris Diderot). Urinary albumin excretion was measured using a specific ELISA assay for quantitative determination of albumin in mouse urine (CellTrend GmbH).
# Kidneys were harvested and fixed in 4% formal. Paraffin-embedded sections (5 μm thick) were stained by Masson's trichrome to evaluate kidney morphology and determine proportion of crescentic glomeruli by a blinded examination on at least 50 glomeruli per section.
# For preventive strategy, antagomiR treatment (12 mg/kg) started 3 days before NTS injection. AntagomiRs (VBC biotech, Vienna) were delivered by retro-orbital i.v. injections under brief anesthesia. Second and third injections were performed on days 1 and 3 with NTS injection. For curative strategy, antagomir were injected on days 4, 5 and 8 after NTS. A scramble antagomiR (Antagomir-Control) was used as control. The sequences were obtained from previously published manuscript (66). In the miR-92 antagomir and control antagomir, the 2′O RNA base are methylated followed by first two bases and last 3 bases are phosphorothiated to increase the stability of antagomir from degradation. In addition, a cholesterol-TEG was added at the 3′ for easy entry of antagomir into the cells. AntagomiR-Control (SEQ ID NO: 7, anti-miR-ctrl): 5′-[…]-3′ and antagomiR-92a (SEQ ID NO: 8, anti-miR-92a): 5′-[…]-3′ as shown to be effective after in vivo administration in kidneys (34, 67). Saline-treated mice were used as control of the scramble antagomiR.
# primary podocytes = assay: Podocyte outgrowth (proliferation) assay from isolated decapsulated glomeruli; type: cell-based, mouse; conditions: for podocyte outgrowth area / proliferation of cultured primary podocytes: Pod-Stat3 WT podocytes treated with Stattic, quantified at day 4
# Protocol: Mouse kidneys were extracted, minced, and digested in 2 mg/mL collagenase I solution (Gibco) in RPMI 1640 (Invitrogen) at 37° C. for 3 minutes, then filtered through a 70-μm cell strainer and one more through a 40-μm cell strainer. The homogenate was centrifuged at 720 g for 6 minutes and cells plated. Isolated glomeruli were then collected in Phosphosafc extraction buffer (Novagen) for protein extraction or in RLT extraction buffer (Qiagen) for total RNA extraction. For podocyte primary culture, freshly isolated glomeruli were plated in 6-plate dishes in RPMI 1640 (Invitrogen) supplemented by 10% Fetal Calf Serum (Biowest) and 1% penicillin-streptomycin (Invitrogen). The outgrowth of podocytes started between days 2 and 3. Podocyte outgrowth area was quantified at day 4 using ImageJ software. After 4 days of primary culture, podocytes were trypsinized then plated into μ-Dish 35 mm high with Culture-Insert (Ibidi). Ibidi's wounding inserts were used for cell migration studies. The coverage of the 500-μm gap was assessed after 12 hours of culture and podocyte migration area was quantified using ImageJ software. The effects of HB-EGF (10 ng/mL, Preprotech) or AG1478 (1 μM, Calbiochem) or anti-mIL-6 monoclonal antibody MP5-20F3 (10 μg/mL, eBiosciences) or Stattic (2 μM, Calbiochem) on differentiated podocytes was applied during 16 hours. After stimulation, podocytes were scrapped in Phosphosafe buffer for protein extraction or in RLT buffer for total RNA extraction. […] Anti-miR-Control#1 was used as control (All from Ambion, 50 nM).
# [1] = system: Ki67 and PCNA mRNA expression in primary podocytes; assay: RT-PCR of proliferation markers Ki67 and PCNA in primary podocyte cultures; type: cell-based, mouse
# Protocol: After 4 days of primary culture, podocytes were trypsinized then plated into μ-Dish 35 mm high with Culture-Insert (Ibidi). Ibidi's wounding inserts were used for cell migration studies. The coverage of the 500-μm gap was assessed after 12 hours of culture and podocyte migration area was quantified using ImageJ software. The effects of HB-EGF (10 ng/mL, Preprotech) or AG1478 (1 μM, Calbiochem) or anti-mIL-6 monoclonal antibody MP5-20F3 (10 μg/mL, eBiosciences) or Stattic (2 μM, Calbiochem) on differentiated podocytes was applied during 16 hours. After stimulation, podocytes were scrapped in Phosphosafe buffer for protein extraction or in RLT buffer for total RNA extraction. Total RNA extraction of mice glomeruli was performed using an Rneasy Minikit (Qiagen) and reverse transcribed into cDNA using the Quantitect Reverse Transcription kit (Qiagen) according to the manufacturer's protocol. cDNA and standard were amplified in Maxima SYBR Green/Rox qPCR mix (Fermentas) on an ABI PRISM thermo cycler. The comparative method of relative quantification (2-ΔΔCT) was used to calculate the expression level of each target gene, normalized to GAPDH. The oligonucleotide sequences are available upon request. The data are presented as the fold change in gene expression. […] Anti-miR-Control#1 was used as control (All from Ambion, 50 nM).
# [2] = Stattic 25 mg/kg i.p. every other day, day 10 after NTS, 129S2 mice
# [3] = antagomiR 12 mg/kg i.v., preventive strategy, 10 days after NTS, vs anti-miR-ctrl or vehicle
Compound,albuminuria (urinary albumin excretion rate) (NTS-challenged mice; [2]),alleviation of the rise in blood urea nitrogen (BUN) concentrations (NTS-challenged mice; [2]) [%],proportion of crescentic glomeruli (NTS-challenged mice; [2]),podocyte outgrowth area / proliferation of cultured primary podocytes (primary podocytes),podocyte outgrowth area / proliferation of cultured primary podocytes (primary podocytes; listed as STAT3 inhibitor),Ki67 expression in primary podocytes ([1]; Stattic 2 μM for 16 hours),PCNA expression in primary podocytes ([1]; Stattic 2 μM for 16 hours),kidney dysfunction (blood urea nitrogen concentrations) (NTS-challenged mice; [3]),urinary albumin excretion (NTS-challenged mice; [3]),"glomerular crescents formation (NTS-challenged mice; antagomiR 12 mg/kg i.v., preventive strategy, vs NTS+anti-miR-ctrl, P<0.05) [%]","results in curative strategy (miR-92a expression, albuminuria, BUN, p57-positive cells) (NTS-challenged mice; antagomir injection on days 4, 5 and 8 after NTS, read at day 10)","podocyte outgrowth (primary podocytes; anti-miR-92a transfected (50 nM), over 4 days, vs control cells or anti-miR control)","Ki67 mRNA level ([1]; anti-miR-92a transfected (50 nM) primary podocytes, vs control cells or anti-miR control)"
O=[N+]([O-])c1ccc2c(c1)S(=O)(=O)C=C2 [Stattic],trend to decreased,50,reduced,inhibited,significantly reduced,markedly blunted,markedly blunted,–,–,–,–,–,–
"anti-miR-92a: 2′O-methylated, end-phosphorothioated antagomir with 3′ cholesterol-TEG, SEQ ID NO: 8, 5′-CAGGCCGGGACAAGUGCAAUA-3′ (VBC biotech) (listed as RNA, chemistry not fully specified)",–,–,–,–,–,–,–,strong decrease,strong decrease,-44,validated,decrease,decrease
